System: Daudi Cell Culture
Test: Compound primary screening in Daudi cell culture
Assay type: cell-based
Conditions: Homo sapiens, 168 h; Daudi cells, 1250 cells per well, reads on Day 7
Method: Compound Primary Screening
1. Materials and Supplies
Plastic ware and consumables needed for this experiment include: Cell Culture media; Evaporation Buffer media; 100% DMSO; 96 well U-bottom sterile culture plates; 250 mL bottle; 1.5 mL Opaque amber epi tubes; Epi Tube rack; 300 mL reservoirs; 25 mL reservoir; 25 mL serological pipette tips; 5 mL serological pipette tips P1000 Pipette Tips; and P200 Pipette Tips.
Equipment needed for this experiment include: Viaflo 384 liquid handler; Eppendorf serological pipette; Eppendorf P1000 Pipette; and Eppendorf P200 Pipette
Daudi Cell Culture is also needed for this experiment.
Lastly, compounds (e.g., the compounds of this invention) to be tested are needed.
All steps were performed in a sterile environment inside the Biosafety cabinet.
A 96 well u-bottom plate was prepared by writing the experiment number, plate number, date and initials in the top right corner of the plate lid. With a sterile 300 ml reservoir, and 25 ml serological pipette, evaporation buffer media was pipetted into reservoir in 25 ml increments. Using the liquid handler, 150 ul of evaporation buffer media was pipetted from reservoir into rows A and H, and Columns 1 and 12 of the 96 well u-bottom plate. Cell cultures were counted to obtain the density of cells per ml, and the culture viability. The cell density information was used to obtain 1,000,000 cells from culture using a 5 mL serological pipette into an epi tube. The cell density information from the culture was used to calculate the number of cells and volume of media needed for the assay to seed 1250 cells in 130 ul of media per available culture well in the 96 well u-bottom plate. Rows B through F were used for cells (50 wells in total), with row G left for an empty media control. The calculation was overestimated by 10 mL to account for the dead volume in the 300 ml reservoir. Once the media volume was calculated, the appropriate volume of media was pipetted in 25 mL increments into the 250 mL bottle using a 25 mL serological pipette. The 250 ml bottle was capped tightly, and placed into a 37° C. water bath for 2 minutes. While the culture media was warming, 10 mL of fresh media was pipetted from the 500 mL culture media bottle into a sterile 25 mL reservoir. Using the Eppendorf multichannel pipette, 130 ul of media was pipetted from the 25 mL reservoir into row G of the 96 well u-bottom plate. Once the 250 mL bottle of media was warmed, the volume of culture needed was pipetted into the bottle, and mixed gently with a 25 mL serological pipette as to not create bubbles, and then the contents of the bottle were pipetted into a new 300 mL reservoir. Using the liquid handler, 130 ul of culture was pipetted from the 300 mL reservoir into rows B through F of the 96 well u-bottom plate. Once the culture was added, the plate was placed into a 37° C. incubator until the compound master plate was prepared for use.
Two 96 well u-bottom plates were prepared by writing the master plate name in the upper right corner of the plate lid. Labeling one DMSO master and the other Media Master. The compounds of interest were obtained from the laboratory freezer, and placed into a 25 well storage box with a lid, and set the box aside. The compounds were vortexed after thawing but before use. Using an automatic multichannel pipette, 20 ul of 100% DMSO was pipetted into wells B3-B11 through G3-G11 of the DMSO master plate. For each compound on the master plate, 50 ul of the compound were pipetted in the appropriate well of row 2 (reference plate map to determine appropriate well). A serial dilution was prepared beginning by aspirating 20 ul from row 2 and mixing with row 3, repeating until row 11 was reached. Using the liquid handler, 194 ul of Daudi media was dispensed into wells B2-B11 through G2-G11 of the Media master plate. Using the liquid handler, 6 ul from the DMSO master plate was aspirated and dispensed into the media master plate, mixing 100 ul twice. […]

EC50 | SMILES
< 5 µM | CC(C)OC(=O)Nc1ccc(-c2ncc(-c3ccc(NC(=O)OCCO)cc3S(=O)(=O)NC(C)(C)C)s2)cc1 [Compound B1]
< 10 µM | CCOC(=O)NCc1ccc(-c2cnc(-c3ccc(NC(=O)OC(C)C)cc3)s2)c(S(=O)(=O)NC(C)(C)C)c1 [Compound P8]
< 10 µM | CC(C)OC(=O)Nc1ccc(-c2ncc(-c3ccc(CNC(=O)c4cncnc4)cc3S(=O)(=O)NC(C)(C)C)s2)cc1 [Compound O8]
< 10 µM | CC(C)NC(=S)Nc1ccc(-c2ncc(-c3ccc(NC(=O)NCc4cnc[nH]4)cc3S(=O)(=O)NC(C)(C)C)s2)cc1 [Compound N6]
> 10 µM | CC(=O)Nc1ccc(-c2cnc(-c3ccc(NC(=O)CC(C)C)cc3)s2)c(S(=O)(=O)NC(C)(C)C)c1 [Compound G4]
< 5 µM | CC(C)OC(=O)Nc1ccc(-c2ncc(-c3ccc(NC(=O)[C@H]4CCCN4)cc3S(=O)(=O)NC(C)(C)C)s2)cc1 [Compound H2]
> 10 µM | COC(=O)[C@H](Cc1ccccc1)NS(=O)(=O)c1cc(NC(C)=O)ccc1-c1cnc(-c2ccc(NC(=S)NC(C)C)cc2)s1 [Compound D1]
> 10 µM | COCCNS(=O)(=O)c1cc(NC(C)=O)ccc1-c1cnc(-c2ccc(NC(=S)NC(C)C)cc2)s1 [Compound D27]
< 1 µM | CC(C)OC(=O)Nc1ccc(-c2ncc(-c3ccc(NC(=O)OCc4ccccc4)cc3S(=O)(=O)NC(C)(C)C)s2)cc1 [Compound H5]
< 10 µM | CC(C)OC(=O)Nc1ccc(-c2ncc(-c3ccc(NC(=O)OCc4ncc[nH]4)cc3S(=O)(=O)NC(C)(C)C)s2)cc1 [Compound B14]
< 10 µM | CC(C)NC(=S)Nc1ccc(-c2ncc(-c3ccc(NC(=O)NC(C)c4ccccc4)cc3S(=O)(=O)NC(C)(C)C)s2)cc1 (centres unmarked) [Compound M7]
> 10 µM | CC(=O)Nc1ccc(-c2cnc(-c3ccc(NC(=S)NC(C)C)cc3)s2)c(S(=O)(=O)N[C@H]2CC[C@H](O)CC2)c1 [Compound D7]
< 1 µM | C/C=C/COC(=O)Nc1ccc(-c2cnc(-c3ccc(NC(=O)OC(C)C)cc3)s2)c(S(=O)(=O)NC(C)(C)C)c1 [Compound B12]
< 10 µM | CC(C)OC(=O)Nc1ccc(-c2ncc(-c3ccc(N4CC(C)OC4=O)cc3S(=O)(=O)NC(C)(C)C)s2)cc1 (centres unmarked) [Compound J26, isopropyl (4-(5-(2-(N-(tert-butyl)sulfamoyl)-4-(5-methyl-2-oxooxazolidin-3-yl)phenyl)thiazol-2-yl)phenyl)carbamate]
< 1 µM | CC(C)OC(=O)Nc1ccc(-c2ncc(-c3ccc(NC(=O)OCc4ccccn4)cc3S(=O)(=O)NC(C)(C)C)s2)cc1 [Compound B3]
> 10 µM | CC(=O)Nc1ccc(-c2cnc(-c3ccc(N4CCOC4=O)cc3)s2)c(S(=O)(=O)NC(C)(C)C)c1 [Compound J19, N-[3-(tert-butylsulfamoyl)-4-[2-[4-(2-oxooxazolidin-3-yl)phenyl]thiazol-5-yl]phenyl]acetamide]
< 1 µM | COCCOC(=O)Nc1ccc(-c2cnc(-c3ccc(NC(=O)OC(C)C)cc3)s2)c(S(=O)(=O)NC(C)(C)C)c1 [Compound B2]

EC50 | SMILES
> 10 µM | Cn1ccnc1Nc1ccc(-c2cnc(-c3ccc(N)cc3)s2)c(S(N)(=O)=O)c1 [Compound E18]
> 10 µM | CC(C)NC(=S)Nc1ccc(-c2ncc(-c3ccc(NC(=O)N(C)Cc4ccccc4)cc3S(=O)(=O)NC(C)(C)C)s2)cc1 [Compound M1]
< 10 µM | CC(C)OC(=O)Nc1ccc(-c2ncc(-c3ccc(CNC(=O)C4CCNCC4)cc3S(=O)(=O)NC(C)(C)C)s2)cc1 [Compound O1]
< 5 µM | CC(C)OC(=O)Nc1ccc(-c2ncc(-c3ccc(NC(=O)OCC4CCCN4)cc3S(=O)(=O)NC(C)(C)C)s2)cc1 (centres unmarked) [Compound B7]
< 10 µM | CC(=O)Nc1ccc(-c2cnc(-c3ccc(N)cc3)s2)c(S(=O)(=O)NC(C)(C)C)c1 [Compound A4]
< 5 µM | CC(C)OC(=O)Nc1ccc(-c2ncc(-c3ccc(NC4(C)COC4)cc3S(=O)(=O)NC(C)(C)C)s2)cc1 [Compound I4]
< 10 µM | CC(C)OC(=O)Nc1ccc(-c2ncc(-c3ccc(CNS(=O)(=O)c4ccccc4)cc3S(=O)(=O)NC(C)(C)C)s2)cc1 [Compound P6]
> 10 µM | CC(C)OC(=O)Nc1ccc(-c2ncc(-c3cc(NC(=O)OCc4ccccc4)ccc3S(=O)(=O)NC(C)(C)C)s2)cc1 [Compound K2]
< 10 µM | CC(C)OC(=O)Nc1ccc(-c2ncc(-c3ccc(C(F)(F)F)cc3S(=O)(=O)NC(C)(C)C)s2)cc1 [Compound J6]
< 1 µM | CC(C)OC(=O)Nc1ccc(-c2ncc(-c3ccc(NC(=O)C(C)C)cc3S(=O)(=O)NC(C)(C)C)s2)cc1 [Compound H10]
< 5 µM | CC(C)OC(=O)Nc1ccc(-c2ncc(-c3ccc(O)cc3S(=O)(=O)NC(C)(C)C)s2)cc1 [Compound I2, isopropyl N-[4-[5-[2-(tert-butylsulfamoyl)-4-hydroxy-phenyl]thiazol-2-yl]phenyl]carbamate]
> 10 µM | CNS(=O)(=O)c1cc(NC(C)=O)ccc1-c1cnc(-c2ccc(NC(=S)NC(C)C)cc2)s1 [Compound D6]
> 10 µM | CC(=O)Nc1ccc(-c2cnc(-c3ccc(NCC(C)(C)O)cc3)s2)c(S(=O)(=O)NC(C)(C)C)c1 [Compound J12, N-[3-(tert-butylsulfamoyl)-4-[2-[4-[(2-hydroxy-2-methyl-propyl)amino]phenyl]thiazol-5-yl]phenyl]acetamide]
< 10 µM | CC(=O)Nc1ccc(-c2cnc(-c3ccc(NS(=O)(=O)c4ccccc4)cc3)s2)c(S(=O)(=O)NC(C)(C)C)c1 [Compound G6]
> 10 µM | CC(=O)Nc1ccc(-c2cnc(-c3ccc(NC(=S)NC(C)C)cc3)s2)c(S(=O)(=O)NCCOCCO)c1 [Compound D26]
> 10 µM | CC(C)NC(=S)Nc1ccc(-c2ncc(-c3ccc(Nc4nccn4C)cc3S(N)(=O)=O)s2)cc1 [Compound E19]
< 10 µM | CC(C)NC(=O)Nc1ccc(-c2ncc(-c3ccc(N4CCCC4=O)cc3S(=O)(=O)NC(C)(C)C)s2)cc1 [Compound J7]

SMILES | EC50
CC(=O)Nc1ccc(-c2cnc(-c3ccc(NC(=S)NC(C)C)cc3)s2)c(S(=O)(=O)N2C3CCC2CC3)c1 [Compound D22] | < 1 µM
CC(C)OC(=O)Nc1ccc(-c2ncc(-c3ccc(NC(C)C(F)(F)F)cc3S(=O)(=O)NC(C)(C)C)s2)cc1 (centres unmarked) [Compound J3, isopropyl N-[4-[5-[2-(tert-butylsulfamoyl)-4-[(2,2,2-trifluoro-1-methyl-ethyl)amino]phenyl]thiazol-2-yl]phenyl]carbamate] | < 5 µM
CC(C)NC(=S)Nc1ccc(-c2ncc(-c3ccc(N(C)C(=O)NCc4ccccc4)cc3S(=O)(=O)NC(C)(C)C)s2)cc1 [Compound Q3] | < 1 µM
CC(C)NC(=S)Nc1ccc(-c2ncc(-c3ccc(NC(=O)NCc4ccc(O)cc4)cc3S(=O)(=O)NC(C)(C)C)s2)cc1 [Compound N1, N-(tert-butyl)-5-(3-(4-hydroxybenzyl)ureido)-2-(2-(4-(3-isopropylthioureido)phenyl)thiazol-5-yl)benzenesulfonamide] | < 10 µM
CC(=O)Nc1ccc(-c2cnc(-c3ccc(NC(=O)OC(C)C)cc3)s2)c(S(=O)(=O)NC(C)(C)C)c1 [Compound E11] | < 5 µM
CC(C)NC(=S)Nc1ccc(-c2ncc(-c3ccc(N4CCN(Cc5ccccc5)C4=O)cc3S(=O)(=O)NC(C)(C)C)s2)cc1 [Compound J22] | > 10 µM
CC(C)NC(=S)Nc1ccc(-c2ncc(-c3ccc(N(C)C(=O)N(C)Cc4ccccc4)cc3S(=O)(=O)NC(C)(C)C)s2)cc1 [Compound Q4] | < 1 µM

From patent US11291655B2, “RAD51 inhibitors” (Cyteir Therapeutics, Inc., priority 2017, dated 2022)
